Assay results as given in patent US20120034613A1, “Apparatus and Method for Testing Relationships Between Gene Expression and Physical Appearance of Skin” (NSE Products, Inc., priority 2010, published 2012).

Test system: EpidermFT™ Skin Model (EFT-400) full thickness skin cultures
Test: Affymetrix GeneChip HG U133 Plus 2.0 microarray global gene expression, agent-exposed vs untreated skin cultures
Assay type: cell-based, human
Settings: 0.5%, 24 hr

Compound: OCc1ccccc1O[C@@H]1O[C@H](CO)[C@@H](O)[C@H](O)[C@H]1O [Salicin, 2-(Hydroxymethyl)phenyl β-D-glucospyranoside]
- Direction CYR61 (probe 210764_s_at): up
- Fold change CYR61 (probe 210764_s_at): 2.692
- Direction PLAUR (probe 210845_s_at): up
- Fold change PLAUR (probe 210845_s_at): 2.249
- Direction HGF (probe 210998_s_at): up
- Fold change HGF (probe 210998_s_at): 4.35
- Direction SERPINB4 (probe 211906_s_at): down
- Fold change SERPINB4 (probe 211906_s_at): 5.613
- Direction CAT (probe 211922_s_at): down
- Fold change CAT (probe 211922_s_at): 2.095
- Direction IGFBP5 (probe 211958_at): up
- Fold change IGFBP5 (probe 211958_at): 2.712
- Direction COL4A1 (probe 211981_at): up
- Fold change COL4A1 (probe 211981_at): 2.121
- Direction RHOB (probe 212099_at): up
- Fold change RHOB (probe 212099_at): 3.764
- Direction SGPL1 (probe 212321_at): down
- Fold change SGPL1 (probe 212321_at): 2.406
- Direction SULF1 (probe 212353_at): up
- Fold change SULF1 (probe 212353_at): 4.424
- Direction LCN2 (probe 212531_at): down
- Fold change LCN2 (probe 212531_at): 12.01
- Direction PRKCA (probe 213093_at): up
- Fold change PRKCA (probe 213093_at): 2.125
- Direction STARD13 (probe 213103_at): up
- Fold change STARD13 (probe 213103_at): 2.844
- Direction HSPA6 (probe 213418_at): up
- Fold change HSPA6 (probe 213418_at): 14.24
- Direction MFAP5 (probe 213764_s_at): down
- Fold change MFAP5 (probe 213764_s_at): 2.112
- Direction STARD5 (probe 213820_s_at): down
- Fold change STARD5 (probe 213820_s_at): 3.436
- Direction SST (probe 213921_at): up
- Fold change SST (probe 213921_at): 4.356
- Direction PTGER3 (probe 213933_at): down
- Fold change PTGER3 (probe 213933_at): 13.58
- Direction COL4A6 (probe 213992_at): down
- Fold change COL4A6 (probe 213992_at): 4.8
- Direction S100A8 (probe 214370_at): up
- Fold change S100A8 (probe 214370_at): 2.98
- Direction ELL2 (probe 214446_at): up
- Fold change ELL2 (probe 214446_at): 2.557
- Direction FN1 (probe 214702_at): up
- Fold change FN1 (probe 214702_at): 2.71
- Direction ADAMTS3 (probe 214913_at): up
- Fold change ADAMTS3 (probe 214913_at): 2.145
- Direction SOD2 (probe 215078_at): up
- Fold change SOD2 (probe 215078_at): 5.712
- Direction KLK10 (probe 215808_at): down
- Fold change KLK10 (probe 215808_at): 4.673
- Direction FNDC3A (probe 215910_s_at): up
- Fold change FNDC3A (probe 215910_s_at): 3.663
- Direction TNC (probe 216005_at): up
- Fold change TNC (probe 216005_at): 2.719
- Direction MAP3K4 (probe 216199_s_at): up
- Fold change MAP3K4 (probe 216199_s_at): 2.654
- Direction NR4A2 (probe 216248_s_at): up
- Fold change NR4A2 (probe 216248_s_at): 7.592
- Direction LTB4R (probe 216388_s_at): down
- Fold change LTB4R (probe 216388_s_at): 2.456
- Direction CCL2 (probe 216598_s_at): up
- Fold change CCL2 (probe 216598_s_at): 5.407
- Direction KLK1 (probe 216699_s_at): down
- Fold change KLK1 (probe 216699_s_at): 2.169
- Direction NR4A3 (probe 216979_at): up
- Fold change NR4A3 (probe 216979_at): 7.204
- Direction NAMPT (probe 217738_at): up
- Fold change NAMPT (probe 217738_at): 2.668
- Direction TSPAN13 (probe 217979_at): down
- Fold change TSPAN13 (probe 217979_at): 2.401
- Direction PHLDA1 (probe 217997_at): up
- Fold change PHLDA1 (probe 217997_at): 3.409
- Direction ZC3H12A (probe 218810_at): up
- Fold change ZC3H12A (probe 218810_at): 2.117
- Direction LASS4 (probe 218922_s_at): down
- Fold change LASS4 (probe 218922_s_at): 3.028
- Direction KRT23 (probe 218963_s_at): down
- Fold change KRT23 (probe 218963_s_at): 10.94
- Direction IL20RA (probe 219115_s_at): down
- Fold change IL20RA (probe 219115_s_at): 12.07
- Direction HSPBAP1 (probe 219284_at): up
- Fold change HSPBAP1 (probe 219284_at): 2.08
- Direction MREG (probe 219648_at): down
- Fold change MREG (probe 219648_at): 2.887
- Direction SMPD3 (probe 219695_at): down
- Fold change SMPD3 (probe 219695_at): 13.66
- Direction IL23A (probe 220054_at): up
- Fold change IL23A (probe 220054_at): 2.967
- Direction IL22RA1 (probe 220056_at): down
- Fold change IL22RA1 (probe 220056_at): 2.023
- Direction HYAL4 (probe 220249_at): down
- Fold change HYAL4 (probe 220249_at): 3.117
- Direction CALML5 (probe 220414_at): down
- Fold change CALML5 (probe 220414_at): 8.749
- Direction PSORS1C2 (probe 220635_at): down
- Fold change PSORS1C2 (probe 220635_at): 19.08
- Direction IL19 (probe 220745_at): up
- Fold change IL19 (probe 220745_at): 2.278
- Direction IL1F7 (probe 221470_s_at): down
- Fold change IL1F7 (probe 221470_s_at): 100.5
- Direction GDF15 (probe 221577_x_at): up
- Fold change GDF15 (probe 221577_x_at): 5.573
- Direction HSPB8 (probe 221667_s_at): down
- Fold change HSPB8 (probe 221667_s_at): 4.659
- Direction HMGCS1 (probe 221750_at): down
- Fold change HMGCS1 (probe 221750_at): 2.406
- Direction DNAJC10 (probe 221782_at): up
- Fold change DNAJC10 (probe 221782_at): 2.553
- Direction KLF4 (probe 221841_s_at): down
- Fold change KLF4 (probe 221841_s_at): 2.468
- Direction CLDN1 (probe 222549_at): down
- Fold change CLDN1 (probe 222549_at): 7.758
- Direction HPSE (probe 222881_at): down
- Fold change HPSE (probe 222881_at): 4.194
